Experimental data from ChEMBL document CHEMBL4627347, “The signal peptide as a new target for drug design” (Bioorg Med Chem Lett, 2020).

Legend:
[1] = target: T-cell surface glycoprotein CD4 (Homo sapiens, UniProt P01730); assay: Inhibition of FITC-tagged human CD4 expressed in human SUP-T1 cells after 72 hrs by FACS analysis; format: cell-based
Sortilin = target: T1, Sortilin (Homo sapiens, UniProt Q99523); assay: Inhibition of GFP-tagged Sortilin (unknown origin) expressed in HEK293T cells after 42 hrs by FACS analysis; format: cell-based, HEK-293T
T1 sequence (Q99523 whole entry): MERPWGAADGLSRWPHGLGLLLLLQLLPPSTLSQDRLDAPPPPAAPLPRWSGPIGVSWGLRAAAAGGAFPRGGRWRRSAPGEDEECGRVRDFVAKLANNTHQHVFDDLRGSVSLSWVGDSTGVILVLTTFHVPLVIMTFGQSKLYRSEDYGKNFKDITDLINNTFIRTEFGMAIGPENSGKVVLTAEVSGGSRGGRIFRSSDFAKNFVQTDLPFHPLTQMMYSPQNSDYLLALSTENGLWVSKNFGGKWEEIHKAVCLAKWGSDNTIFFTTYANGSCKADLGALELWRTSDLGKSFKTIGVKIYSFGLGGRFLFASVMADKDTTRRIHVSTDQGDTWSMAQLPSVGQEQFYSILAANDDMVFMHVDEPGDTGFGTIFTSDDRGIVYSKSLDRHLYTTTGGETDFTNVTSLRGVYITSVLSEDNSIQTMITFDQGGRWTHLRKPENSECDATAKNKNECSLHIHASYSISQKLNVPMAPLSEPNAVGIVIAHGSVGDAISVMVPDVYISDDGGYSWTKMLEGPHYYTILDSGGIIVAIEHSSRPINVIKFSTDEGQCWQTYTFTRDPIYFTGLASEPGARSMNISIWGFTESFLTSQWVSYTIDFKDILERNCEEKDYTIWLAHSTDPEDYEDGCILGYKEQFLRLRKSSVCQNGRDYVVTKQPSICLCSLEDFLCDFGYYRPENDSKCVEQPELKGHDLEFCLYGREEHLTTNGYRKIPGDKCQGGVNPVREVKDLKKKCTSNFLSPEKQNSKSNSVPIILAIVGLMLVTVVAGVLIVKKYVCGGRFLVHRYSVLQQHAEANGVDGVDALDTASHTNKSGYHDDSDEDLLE

IC50 [1]: 210 nM | IC50 (Sortilin): 380 nM
SMILES: C=C1CN(S(=O)(=O)c2ccc(C)cc2)CCCN(Cc2ccccc2)CCCN(S(=O)(=O)c2ccc(C)cc2)C1
